# From ChEMBL document CHEMBL3885881, “DrugMatrix”
# Species: Rattus norvegicus
# Assay: DrugMatrix - Regimen: Daily Repeat
# Type: toxicity, organism-based, Sprague-Dawley
# Parameters: regimen Daily Repeat, gender Male, age 6-8 weeks
# Conditions: in vivo, po, route oral GAVAGE, vehicle .5 % CMC; for ABSOLUTE BASOPHIL / ABSOLUTE EOSINOPHIL / ABSOLUTE LYMPHOCYTE / ABSOLUTE MONOCYTE / ABSOLUTE SEGMENTED NEUTROPHIL / BASOPHIL / EOSINOPHIL / ERYTHROCYTE COUNT / HEMATOCRIT / HEMOGLOBIN / LEUKOCYTE COUNT / LYMPHOCYTE / MEAN CORPUSCULAR HEMOGLOBIN / MEAN CORPUSCULAR HEMOGLOBIN CONCENTRATION / MEAN CORPUSCULAR VOLUME / MONOCYTE / NEUTROPHIL / NUCLEATED RED BLOOD CELLS / PLATELET COUNT: tissue Blood; for ALANINE AMINOTRANSFERASE / ALBUMIN / ALKALINE PHOSPHATASE / ASPARTATE AMINOTRANSFERASE / BLOOD UREA NITROGEN / CARBON DIOXIDE / CHLORIDE / CHOLESTEROL / CREATINE PHOSPHOKINASE / CREATININE / GLUCOSE / LACTATE DEHYDROGENASE / LIPASE / PHOSPHORUS / POTASSIUM / SODIUM / TOTAL BILIRUBIN / TOTAL PROTEIN / URIC ACID: tissue Plasma
# [1] = 20 mg/kg, 120 h, dose level Low, time 5 day
# [2] = 1500 mg/kg, 72 h, dose level High, time 3 day
# [3] = 1500 mg/kg, 120 h, dose level High, time 5 day
compound,measurement,setting,value
CC(C)(C)NC(=O)[C@@H]1C[C@@H]2CCCC[C@@H]2CN1C[C@@H](O)[C@H](Cc1ccccc1)NC(=O)[C@H](CC(N)=O)NC(=O)c1ccc2ccccc2n1,ABSOLUTE BASOPHIL,[1],0 CELLS/uL
same,ABSOLUTE EOSINOPHIL,[1],247 CELLS/uL
same,ABSOLUTE LYMPHOCYTE,[1],11820.33 CELLS/uL
same,ABSOLUTE MONOCYTE,[1],0 CELLS/uL
same,ABSOLUTE SEGMENTED NEUTROPHIL,[1],1032.67 CELLS/uL
same,BASOPHIL,[1],0%
same,EOSINOPHIL,[1],2%
same,ERYTHROCYTE COUNT,[1],5.22 x10E6/uL
same,HEMATOCRIT,[1],32.83%
same,HEMOGLOBIN,[1],12.53 G/DL
same,LEUKOCYTE COUNT,[1],13.1 x10E3/uL
same,LYMPHOCYTE,[1],90.33%
same,MEAN CORPUSCULAR HEMOGLOBIN,[1],24.03 pg
same,MEAN CORPUSCULAR HEMOGLOBIN CONCENTRATION,[1],38.2 G/DL
same,MEAN CORPUSCULAR VOLUME,[1],63.03 fL
same,MONOCYTE,[1],0%
same,NEUTROPHIL,[1],7.67%
same,NUCLEATED RED BLOOD CELLS,[1],0 /100WBC
same,PLATELET COUNT,[1],1193.67 x10E3/uL
same,ALANINE AMINOTRANSFERASE,[1],53.33 u/L
same,ALBUMIN,[1],4.33 G/DL
same,ALKALINE PHOSPHATASE,[1],341.67 u/L
same,ASPARTATE AMINOTRANSFERASE,[1],80.67 u/L
same,BLOOD UREA NITROGEN,[1],18 mg/dL
same,CARBON DIOXIDE,[1],25.33 mmol/L
same,CHLORIDE,[1],102.67 MEQ/L
same,CHOLESTEROL,[1],79.33 mg/dL
same,CREATINE PHOSPHOKINASE,[1],166.33 u/L
same,CREATININE,[1],0.19 mg/dL
same,GLUCOSE,[1],146.67 mg/dL
same,LACTATE DEHYDROGENASE,[1],98.33 u/L
same,LIPASE,[1],8.67 u/L
same,PHOSPHORUS,[1],11.57 mg/dL
same,POTASSIUM,[1],5.98 MEQ/L
same,SODIUM,[1],144.17 MEQ/L
same,TOTAL BILIRUBIN,[1],0.17 mg/dL
same,TOTAL PROTEIN,[1],6.37 G/DL
same,URIC ACID,[1],1.27 mg/dL
same,ABSOLUTE BASOPHIL,[2],0 CELLS/uL
same,ABSOLUTE EOSINOPHIL,[2],137.33 CELLS/uL
same,ABSOLUTE LYMPHOCYTE,[2],12869.33 CELLS/uL
same,ABSOLUTE MONOCYTE,[2],0 CELLS/uL
same,ABSOLUTE SEGMENTED NEUTROPHIL,[2],1126.67 CELLS/uL
same,BASOPHIL,[2],0%
same,EOSINOPHIL,[2],1%
same,ERYTHROCYTE COUNT,[2],6.18 x10E6/uL
same,HEMATOCRIT,[2],38.67%
same,HEMOGLOBIN,[2],14.47 G/DL
same,LEUKOCYTE COUNT,[2],14.13 x10E3/uL
same,LYMPHOCYTE,[2],91%
same,MEAN CORPUSCULAR HEMOGLOBIN,[2],23.47 pg
same,MEAN CORPUSCULAR HEMOGLOBIN CONCENTRATION,[2],37.4 G/DL
same,MEAN CORPUSCULAR VOLUME,[2],62.63 fL
same,MONOCYTE,[2],0%
same,NEUTROPHIL,[2],8%
same,NUCLEATED RED BLOOD CELLS,[2],0 /100WBC
same,PLATELET COUNT,[2],1247.33 x10E3/uL
same,ALANINE AMINOTRANSFERASE,[2],48.67 u/L
same,ALBUMIN,[2],4.4 G/DL
same,ALKALINE PHOSPHATASE,[2],408 u/L
same,ASPARTATE AMINOTRANSFERASE,[2],76.67 u/L
same,BLOOD UREA NITROGEN,[2],14 mg/dL
same,CARBON DIOXIDE,[2],26.67 mmol/L
same,CHLORIDE,[2],99.67 MEQ/L
same,CHOLESTEROL,[2],80 mg/dL
same,CREATINE PHOSPHOKINASE,[2],218.33 u/L
same,CREATININE,[2],0.15 mg/dL
same,GLUCOSE,[2],162 mg/dL
same,LACTATE DEHYDROGENASE,[2],94.33 u/L
same,LIPASE,[2],8.67 u/L
same,PHOSPHORUS,[2],12.5 mg/dL
same,POTASSIUM,[2],6.95 MEQ/L
same,SODIUM,[2],144.6 MEQ/L
same,TOTAL BILIRUBIN,[2],0.17 mg/dL
same,TOTAL PROTEIN,[2],6.17 G/DL
same,URIC ACID,[2],1.83 mg/dL
same,ABSOLUTE BASOPHIL,[3],0 CELLS/uL
same,ABSOLUTE EOSINOPHIL,[3],190 CELLS/uL
same,ABSOLUTE LYMPHOCYTE,[3],12822 CELLS/uL
same,ABSOLUTE MONOCYTE,[3],0 CELLS/uL
same,ABSOLUTE SEGMENTED NEUTROPHIL,[3],1388 CELLS/uL
same,BASOPHIL,[3],0%
same,EOSINOPHIL,[3],1.33%
same,ERYTHROCYTE COUNT,[3],5.33 x10E6/uL
same,HEMATOCRIT,[3],33.83%
same,HEMOGLOBIN,[3],13.1 G/DL
same,LEUKOCYTE COUNT,[3],14.4 x10E3/uL
same,LYMPHOCYTE,[3],89.33%
same,MEAN CORPUSCULAR HEMOGLOBIN,[3],24.63 pg
same,MEAN CORPUSCULAR HEMOGLOBIN CONCENTRATION,[3],38.73 G/DL
same,MEAN CORPUSCULAR VOLUME,[3],63.53 fL
same,MONOCYTE,[3],0%
same,NEUTROPHIL,[3],9.33%
same,NUCLEATED RED BLOOD CELLS,[3],0 /100WBC
same,PLATELET COUNT,[3],1411.67 x10E3/uL
same,ALANINE AMINOTRANSFERASE,[3],48 u/L
same,ALBUMIN,[3],4.4 G/DL
same,ALKALINE PHOSPHATASE,[3],396.33 u/L
same,ASPARTATE AMINOTRANSFERASE,[3],69 u/L
same,BLOOD UREA NITROGEN,[3],15.67 mg/dL
same,CARBON DIOXIDE,[3],25.67 mmol/L
same,CHLORIDE,[3],103.33 MEQ/L
same,CHOLESTEROL,[3],71.67 mg/dL
same,CREATINE PHOSPHOKINASE,[3],233.33 u/L
same,CREATININE,[3],0.17 mg/dL
same,GLUCOSE,[3],169 mg/dL
same,LACTATE DEHYDROGENASE,[3],123.33 u/L
same,LIPASE,[3],8.33 u/L
same,PHOSPHORUS,[3],12.8 mg/dL
same,POTASSIUM,[3],6.57 MEQ/L
same,SODIUM,[3],145.83 MEQ/L
same,TOTAL BILIRUBIN,[3],0.23 mg/dL
same,TOTAL PROTEIN,[3],6.23 G/DL
same,URIC ACID,[3],1.7 mg/dL
